Test results reported in patent US20190166841A1, “Method for Controlling PPO Resistant Weeds” (BASF SE, priority 2016, published 2019).

What was measured:
Type in all cases: in vivo
[1] = system: Amaranthus tamariscinus (Common waterhemp, AMATA), PPO resistant biotype 3 that was shown to contain the ΔG210 mutation (w.4); experiment: Greenhouse herbicidal activity test, PPO resistant waterhemp w.4; settings: use rate 4 g/ha; PPO resistant biotype 3 with ΔG210 mutation; scale 0 to 100
Excerpt: (§1) The culture containers used were plastic flowerpots containing loamy sand with approximately 3.0% of humus as the substrate. The seeds of the test plants were sown separately for each species and/or resistant biotype. For the pre-emergence treatment, the active ingredients, which had been suspended or emulsified in water, were applied directly after sowing by means of finely distributing nozzles. The containers were irrigated gently to promote germination and growth and subsequently covered with transparent plastic hoods until the plants had rooted. This cover caused uniform germination of the test plants, unless this had been impaired by the active ingredients. For the post-emergence treatment, the test plants were first grown to a height of 3 to 15 cm, depending on the plant habit, and only then treated with the active ingredients which had been suspended or emulsified in water. For this purpose, the test plants were either sown directly and grown in the same containers, or they were first grown separately as seedlings and transplanted into the test containers a few days prior to treatment. Depending on the species, the plants were kept at 10-25° C. or 20-35° C., respectively. The test period extended over 2 to 4 weeks. During this time, the plants were tended, and their response to the individual treatments was evaluated. The evaluation was carried out by using a scale from 0 to 100. […]

[2] = system: Amaranthus tamariscinus (Common waterhemp, AMATA), PPO resistant biotype 2 (w.3); experiment: Greenhouse herbicidal activity test, PPO resistant waterhemp w.3; settings: use rate 4 g/ha, scale 0 to 100
Excerpt: as §1

[3] = system: Amaranthus tamariscinus (Common waterhemp, AMATA), PPO resistant biotype 1 (w.2); experiment: Greenhouse herbicidal activity test, PPO resistant waterhemp w.2; settings: use rate 4 g/ha, scale 0 to 100
Excerpt: as §1

[4] = system: Amaranthus tamariscinus (Common waterhemp, AMATA), Sensitive biotype (w.1); experiment: Greenhouse herbicidal activity test, sensitive waterhemp w.1; settings: use rate 4 g/ha, scale 0 to 100 (100 = complete destruction, 0 = no damage)
Excerpt: as §1

For CCS(=O)(=O)Nc1cc(-n2nc(C(F)(F)F)n(C)c2=O)c(F)cc1C(N)=S [(I).1, bencarbazone], the “Weed control (%) w.4” value [1] was 82%, the “Weed control (%) w.3” value [2] was 100% and the “Weed control (%) w.2” value [3] was 100%. The “Weed control (%) w.1” value [4] was 92%.
